In paper PMC7323874, “Vancomycin Resistance Is Overcome by Conjugation of Polycationic Peptides” (Angewandte Chemie (International Ed. in English), 2020):
≈ marks a conversion by molar mass, not a printed value. Read-outs that look alike come from different tables or passages of the source.

How the values were obtained:
[1] = test system: Staphylococcus aureus USA300 LAC; test: microbe, parasite or virus in culture; assay type: cell-based; conditions: Staphylococcus aureus, MRSA / USA300, 24 h
Method: (§1) Antimicrobial testing – Microdilution
Antimicrobial testing was performed according to CLSI and EUCAST guidelines in microdilution.8-10 Therefore, all tested substances as well as controls were dissolved in water in different concentrations and serially diluted in MHB II (cation adjusted) on the 96-well plate. A logarithmic growing, overnight culture of the respective bacterial strain was used and adjusted to a McFarland corresponding to 1 × 10^8 cfu/ml. Afterwards the bacterial suspension was diluted to 1 ×10^6 cfu/ml and loaded on the 96-well polypropylene plates, resulting in a final bacterial concentration of 5 × 10^5 cfu/ml. After an incubation at 35 ± 1 °C for 18-20 hours (re-controlled after 24 hours) the MIC was determined as the lowest concentration without visible growth as described previously.11 For direct comparison of the tested substances, all results were calculated in mg/ml and mol/ml afterwards. […]
Resistance development study
(§2) Resistance development in S. aureus was determined by passaging bacteria in increasing amounts of vancomycin, FU002 or, as control, fusidic acid. In principle, tubes with twofold dilutions of the compounds in 1 ml Muller Hinton broth were inoculated 1:100 with bacterial suspension. The tubes were then incubated for 24 h at 37 °C under shaking. After each passage, the tube with the highest compound concentration showing bacterial growth was used to inoculate the tubes of the next passage (1:100). The tube with the lowest compound concentration showing no growth was defined as the passage MIC. Passaging was stopped after 8 passages.
For the validation of possible side effects provoked by the conjugates, the cytotoxic effect of the lead candidate FU002 on human cells was assessed in a colorimetric viability assay. Different human cell types were used including kidney and liver cell lines as well as freshly isolated peripheral blood cells. Cells were seeded into 96-well microtiter plates at 2 x 10^4 cells/well and cultured overnight (18-24 h) in a […]

[2] = test system: Staphylococcus aureus NCTC 10442; test: Blocking experiments with Nα,Nε-diacetyl-Lys-D-Ala-D-Ala in microdilution; assay type: cell-based; conditions: at least 100-fold excess of Nα,Nε-Diacetyl-Lys-D-Ala-D-Ala, pre-incubation minimum 1 hour at room temperature
Method: as §1
Antimicrobial testing was performed according to CLSI and EUCAST guidelines in microdilution.8-10 Therefore, all tested substances as well as controls were dissolved in water in different concentrations and serially diluted in MHB II (cation adjusted) on the 96-well plate. A logarithmic growing, overnight culture of the respective bacterial strain was used and adjusted to a McFarland corresponding to 1 × 10^8 cfu/ml. Afterwards the bacterial suspension was diluted to 1 ×10^6 cfu/ml and loaded on the 96-well polypropylene plates, resulting in a final bacterial concentration of 5 × 10^5 cfu/ml. After an incubation at 35 ± 1 °C for 18-20 hours (re-controlled after 24 hours) the MIC was determined as the lowest concentration without visible growth as described previously.11 For direct comparison of the tested substances, all results were calculated in mg/ml and mol/ml afterwards.
as §2, with “For blocking experiments with NΑ,NΕ-DIACETYL-LYS-D-ALA-D-ALA the tested substances were incubated directly on the dilution plate with at least 100-fold excess of Nα,Nε-Diacetyl-Lys-D-Ala-D-Ala for a minimum of 1 hour at room temperature. Afterwards, the procedure was performed as described above. As further control substance, the glycopeptide antibiotic teicoplanin was evaluated. […] Resistance” for “Resistance”, “Passaging was stopped after 8 passages.” left out
For the validation of possible side effects provoked by the conjugates, the cytotoxic effect of the lead candidate FU002 on human cells was assessed in a colorimetric viability assay. […]

Compound | MIC ([1]; read-out: MIC after 8 passages) [µg/mL] | MIC ([1]; read-out: initial MIC) [µg/mL] | effect of D-Ala-D-Ala binding motif on antibiotic activity [2]
CC(=O)O[C@H]1C[C@@]2(C)[C@@H](C[C@@H](O)[C@H]3[C@@]4(C)CC[C@@H](O)[C@@H](C)[C@@H]4CC[C@@]32C)/C1=C(\CCC=C(C)C)C(=O)O [fusidic acid] | 64 (≈ 124 µM) | 0.125 (≈ 0.242 µM) | 
teicoplanin |  |  | suppresses the antibiotic activity
